# Reference: patent publication US10041937B2, “Macrophage identification agent, and identification method, sorting method, evaluation method, screening method and kit using the macrophage identifier agent” (CANON KABUSHIKI KAISHA, priority 2013, dated 2018)
# Tested on: M1 macrophages and M2 macrophages differentiated from mouse bone marrow cells
# Assay: Subtype identification by staining and flow cytometry of M1 and M2 macrophages differentiated from mouse bone marrow cells
# Format: cell-based, Balb/c mouse
# Conditions: for subtype more strongly stained: two compounds used in combination, each 1 μM
# Experimental: The culture of subtypes was performed according to a protocol described in NPL 7. Specifically, bone marrow cells collected from the femur of a Balb/c mouse of 8 to 10 weeks old were dispersed to a concentration of 1×10^6/mL in an IMDM containing 20% FBS and 1% P/S, and 1×10^7 cells were seeded in a 100 mm dish. After further adding an M-CSF (manufactured by Pepro Tech) thereto to a concentration of 50 ng/mL, the cells were incubated for 3 to 4 days in the presence of 5% CO2 at 37° C., so as to differentiate macrophage precursor cells to macrophages. After exchanging the medium, the M-CSF was added to a concentration of 50 ng/mL, and the incubation was performed for further 3 to 4 days in the presence of 5% CO2 at 37° C., and then, the resulting cells were differentiated to macrophage. By adding 200 ng of interferon-γ and 1 μg of […] (both manufactured by Pepro Tech) to the IMDM containing 5% FBS and 1% P/S, the cells were differentiated to the subtype M1. Besides, by adding 100 ng of IL-4 to the IMDM containing 5% FBS and 1% P/S, the cells were differentiated to the subtype M2. After performing the incubation for further 3 days in the presence of 5% CO2 at 37° C., the resultant was rinsed with PBS, and PBS containing 0.25% trypsin and 1 mM EDTA (ethylenediaminetetraacetic acid) was used for collecting, from the dish, the macrophages having been differentiated to the subtypes M1 and M2.
# Thereafter, the tube was centrifuged at 180 G for 10 minutes to remove the supernatant, a dye for identifying dead cells (aqua fluorescent reactive dye, manufactured by Invitrogen; which is hereinafter sometimes abbreviated as aqua) was added thereto, and the resultant was incubated at 4° C. for 10 minutes. Subsequently, the tube was centrifuged at 180 G for 10 minutes to remove the supernatant, cells were suspended in a FACS buffer to be analyzed by using FACSCanto (trademark) II flow cytometry apparatus manufactured by BD.
# The analysis was performed on a cell population showing a low signal for the aqua, so as to analyze a cell population from which dead cells were eliminated. […] A histogram was prepared by plotting fluorescence intensity obtained in the FITC channel on the abscissa and plotting the number of cells at each fluorescence intensity on the ordinate, which is shown in FIG. 2.
# Histograms were prepared by plotting fluorescence intensities obtained in the respective channels on the abscissa and plotting the numbers of cells at each fluorescence intensity on the ordinate. A difference between a fluorescence intensity (FM1) at a peak top of the histogram of the M1 macrophage and a fluorescence intensity (FM2) at a peak top of the histogram of the M2 macrophage is divided by a sum of a peak width (WM1) of the histogram of the M1 macrophage and a peak width (WM2) of the histogram of the M2 macrophage, so as to obtain a resolution R, which was used as an index of the identification ability for a subtype (see the following expression (1)). Resolution R=|FM1−FM2|/(WM1+WM2) Expression (1)
# [1] = R=|FM1−FM2|/(WM1+WM2), compound 1 μM
# [2] = fluorescence intensity at peak top of histogram, compound 1 μM, 37° C., 30 minutes
# [3] = M1 vs M2 macrophages from mouse bone marrow cells, general formula (6) dyes (Table 7)
# [4] = class based on resolution R, general formula (6) dyes (Table 7)
# [5] = mouse bone marrow-derived M1 macrophages, channel listed per compound, general formula (6) dyes (Table 7)
# [6] = mouse bone marrow-derived M2 macrophages, channel listed per compound, general formula (6) dyes (Table 7)
# [7] = M1 vs M2 macrophages from mouse bone marrow cells, general formula (11) dyes (Table 9)
# [8] = class based on resolution R, general formula (11) dyes (Table 9)
# [9] = mouse bone marrow-derived M1 macrophages, channel listed per compound, general formula (11) dyes (Table 9)
# [10] = mouse bone marrow-derived M2 macrophages, channel listed per compound, general formula (11) dyes (Table 9)
Structure (SMILES),Resolution ratio R [1],Peak position of M1 macrophage [2],Peak position of M2 macrophage [2],Evaluation of macrophage subtype identification (rated from resolution R),also measured
COc1ccc(N2c3ccc(/C=C4\C(=O)N(c5ccccc5)N=C4C(=O)O)cc3C3CCCC32)cc1 (centres unmarked) [compound (33)],0.522,5.00,9.05,"A (The compound is very good in the subtype identification (namely, the resolution R is 0.5 or more))",subtype more strongly stained: the M2 macrophages are more strongly stained than the M1 macrophages
O=C(O)CN1C(=O)/C(=C\c2ccc3c(c2)C2CCCC2N3c2ccc(C=C(c3ccccc3)c3ccccc3)cc2)SC1=S (centres unmarked) [(31)],0.248,65.1,89.0,"B (the compound is good in the subtype identification (namely, the resolution R is 0.15 or more and less than 0.5))",–
CC1(C)C(/C=C/C=C/C=C/C=C2\N(CCCCCC(=O)[O-])c3ccccc3C2(C)C)=[N+](CCCCCC(=O)[O-])c2ccccc21.[Na+] [(91)],–,–,–,–,"Resolution ratio R [3]: 0.476; Evaluation of macrophage subtype identification [4]: B (the compound is good in the subtype identification (namely, the resolution R is 0.15 or more and less than 0.5)); Peak position of M1 macrophage [5]: 2.96; Peak position of M2 macrophage [6]: 13.89"
O=C(O)CCN1C(=O)/C(=C\c2cc(Br)c3c(c2)C2CCCC2N3c2ccc(Br)cc2)SC1=S (centres unmarked) [(11)],0.544,30.5,16.2,"A (The compound is very good in the subtype identification (namely, the resolution R is 0.5 or more))",–
CSc1ccc(N2c3ccc(/C=C4/SC(=S)N(CCC(=O)O)C4=O)cc3C3CCCC32)cc1 (centres unmarked) [(6)],0.504,26.5,50.4,"A (The compound is very good in the subtype identification (namely, the resolution R is 0.5 or more))",–
CN1\C(=C/C=C/C=C/C2=[N+](C)c3ccc4ccccc4c3C2(C)C)C(C)(C)c2c1ccc1ccccc21 [(92)],–,–,–,–,"Resolution ratio R [3]: 0.534; Evaluation of macrophage subtype identification [4]: A (The compound is very good in the subtype identification (namely, the resolution R is 0.5 or more)); Peak position of M1 macrophage [5]: 2.27; Peak position of M2 macrophage [6]: 3.9"
O=C(O)Cn1c(=O)/c(=C\c2ccc3c(c2)C2CCCC2N3c2ccc(C=C(c3ccccc3)c3ccccc3)cc2)s/c1=C1/CC(=S)N(Cc2ccccc2)C1=O (centres unmarked) [(20)],0.290,4.47,2.10,"B (the compound is good in the subtype identification (namely, the resolution R is 0.15 or more and less than 0.5))",–
CCOC(=O)CN1C(=O)/C(=C\c2ccc3c(c2)C2CCCC2N3c2ccc(OC)cc2)SC1=S (centres unmarked) [(21)],0.351,40.0,20.3,"B (the compound is good in the subtype identification (namely, the resolution R is 0.15 or more and less than 0.5))",–
CCCN1c2ccc(/C=C3/SC(=S)N(CCC(=O)O)C3=O)cc2C2CCCC21 (centres unmarked) [(9)],0.828,2.63,6.69,"A (The compound is very good in the subtype identification (namely, the resolution R is 0.5 or more))",–
CCN1C(=O)S/C(=c2/s/c(=C/c3ccc4c(c3)C3CCCC3N4c3ccc(OC)cc3)c(=O)n2CC(=O)O)C1=O (centres unmarked) [(44)],0.330,24.5,12.9,"B (the compound is good in the subtype identification (namely, the resolution R is 0.15 or more and less than 0.5))",–
CCOC(=O)Cn1c(=O)/c(=C\c2ccc3c(c2)C2CCCC2N3Cc2ccccc2)s/c1=C1/SC(=S)N(CC)C1=O (centres unmarked) [(55)],0.206,2.34,1.86,"B (the compound is good in the subtype identification (namely, the resolution R is 0.15 or more and less than 0.5))",–
COc1ccc(N2c3ccc(/C=C/C4=[N+](CCC(=O)O)c5ccc6ccccc6c5C4(C)C)cc3C3CCCC32)cc1 (centres unmarked) [(60)],0.621,4.55,7.65,"A (The compound is very good in the subtype identification (namely, the resolution R is 0.5 or more))",–
CCN1C(=O)S/C(=c2/s/c(=C/c3ccc4c(c3)C3CCCC3N4Cc3ccccc3)c(=O)n2CC(=O)O)C1=O (centres unmarked) [(43)],0.411,7.14,13.0,"B (the compound is good in the subtype identification (namely, the resolution R is 0.15 or more and less than 0.5))",–
COC(=O)COc1ccc(/C=C/C2=[N+]3C(=Cc4ccc(-c5cccs5)n4[B-]3(F)F)C=C2)cc1 [compound (161)],–,–,–,–,"Resolution ratio R [7]: 0.582; Evaluation of macrophage subtype identification [8]: A (The compound is very good in the subtype identification (namely, the resolution R is 0.5 or more)); Peak position of M1 macrophage [9]: 38.4; Peak position of M2 macrophage [10]: 9.02; subtype more strongly stained: the M1 macrophages show higher fluorescence intensity in the APC channel than the M2 macrophages"
CCN1/C(=C\C=C\c2ccc3ccccc3[n+]2CC)C=Cc2ccccc21 [(104)],–,–,–,–,"Resolution ratio R [3]: 0.698; Evaluation of macrophage subtype identification [4]: A (The compound is very good in the subtype identification (namely, the resolution R is 0.5 or more)); Peak position of M1 macrophage [5]: 95.26; Peak position of M2 macrophage [6]: 197.19; Selectivity (subtype strongly stained, general formula (6) dyes (Table 7)): M2"
O=C(O)CCN1C(=O)/C(=C\c2ccc3c(c2)C2CCCC2N3c2ccccc2)SC1=S (centres unmarked) [(13)],0.714,7.74,20.4,"A (The compound is very good in the subtype identification (namely, the resolution R is 0.5 or more))",–
COc1ccc2cc(N3c4ccc(/C=C5\C(=O)N(c6ccc(C(=O)O)cc6)N=C5C)cc4C4CCCC43)ccc2c1 (centres unmarked) [(36)],0.344,5.70,3.82,"B (the compound is good in the subtype identification (namely, the resolution R is 0.15 or more and less than 0.5))",–
CCOC(=O)CN1C(=O)/C(=C\c2ccc3c(c2)C2CCCC2N3c2ccc(C=C(c3ccccc3)c3ccccc3)cc2)SC1=S (centres unmarked) [(19)],0.319,0.90,0.64,"B (the compound is good in the subtype identification (namely, the resolution R is 0.15 or more and less than 0.5))",–
CCN(CC)c1ccc2cc(-c3nc4ccccc4[nH]3)c(=O)oc2c1 [(131)],–,–,–,–,"Resolution ratio R (M1 vs M2 macrophages from mouse bone marrow cells, general formula (10) dyes (Table 8)): 0.480; Evaluation of macrophage subtype identification (class based on resolution R, general formula (10) dyes (Table 8)): B (the compound is good in the subtype identification (namely, the resolution R is 0.15 or more and less than 0.5)); Peak position of M1 macrophage (mouse bone marrow-derived M1 macrophages, channel listed per compound, general formula (10) dyes (Table 8)): 8.06; Peak position of M2 macrophage (mouse bone marrow-derived M2 macrophages, channel listed per compound, general formula (10) dyes (Table 8)): 13.5"
Cc1cc(C)n2c1C=C1C=CC(CCC(=O)O)=[N+]1[B-]2(F)F [(157)],–,–,–,–,"Resolution ratio R [7]: 0.637; Evaluation of macrophage subtype identification [8]: A (The compound is very good in the subtype identification (namely, the resolution R is 0.5 or more)); Peak position of M1 macrophage [9]: 2.57; Peak position of M2 macrophage [10]: 5.62"
